Data from patent US12661404B2, “Methods and materials for tissue ablation” (Mayo Foundation for Medical Education and Research, priority 2020, dated 2026).

Test system: cardiac muscle
Settings: 1 cc with ICG, 1 hour
Protocol: FIGS. 14A-14B. Effect of an ablation agent on pig heart tissue. FIG. 14A. In a living Yorkshire pig weighing 50-55 kg, a syringe connected to a 21 gauge 7 cm needle was guided through the skin into the myocardium using hand-held ultrasound guidance. […] FIG. 14B.
Pig heart tissue septum received 1 cc injection of LATTE mixture with ICG under ultrasound guidance. Cardiac muscle was removed after 1 hour for near-infrared imaging (NIRF) and histology was performed.

## choline-geranate [LATTE]
  cardiac muscle histology at injected site: marked ablation of the cardiac myofibers
